Test results taken from ChEMBL document CHEMBL1201862, “PubChem BioAssay data set” (2004).
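Five compound concentrations were applied to cells in 96-well plates for 48 hours; endpoints were derived by simple linear interpolation of the resulting dose-response curve. GI50 = concentration required for 50% inhibition of growth.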 Active and inactive are the calls of the source. Rule as the data show it: active = GI50 up to about 1.1 µM and inactive = higher.

Experiments:
Experiment in all cases: NCI-60 cell line screen, 48 h
K562 = test system: K562
SNB-75 = test system: SNB-75
OVCAR-5 = test system: OVCAR-5
PC-3 = test system: PC-3
MOLT-4 = test system: MOLT-4
SK-MEL-2 = test system: SK-MEL-2
COLO 205 = test system: COLO 205
HCT-116 = test system: HCT-116
RXF 393 = test system: RXF 393
TK-10 = test system: TK-10
SW-620 = test system: SW-620
BT-549 = test system: BT-549
SF-539 = test system: SF-539
Hs-578T = test system: Hs-578T
DU-145 = test system: DU-145
SK-MEL-28 = test system: SK-MEL-28
KM12 = test system: KM12
SN12C = test system: SN12C
M14 = test system: M14
OVCAR-8 = test system: OVCAR-8

| SMILES | GI50 (K562) | GI50 (SNB-75) | GI50 (OVCAR-5) | GI50 (PC-3) | GI50 (MOLT-4) | GI50 (SK-MEL-2) | GI50 (COLO 205) | GI50 (HCT-116) | GI50 (RXF 393) | GI50 (TK-10) | GI50 (SW-620) | GI50 (BT-549) | GI50 (SF-539) | GI50 (Hs-578T) | GI50 (DU-145) | GI50 (SK-MEL-28) | GI50 (KM12) | GI50 (SN12C) | GI50 (M14) | GI50 (OVCAR-8) |
| --- | --- | --- | --- | --- | --- | --- | --- | --- | --- | --- | --- | --- | --- | --- | --- | --- | --- | --- | --- | --- |
| c1ccc(NN(Cc2cnccn2)c2ccccc2)cc1 | 47.5 µM (inactive) | > 100 µM (inactive) | > 100 µM (inactive) | 65.8 µM (inactive) | 42.3 µM (inactive) | > 100 µM (inactive) | 84.3 µM (inactive) | 60.5 µM (inactive) | > 100 µM (inactive) | > 100 µM (inactive) | > 100 µM (inactive) | > 100 µM (inactive) | > 100 µM (inactive) | > 100 µM (inactive) | > 100 µM (inactive) | > 100 µM (inactive) | > 100 µM (inactive) | 63.8 µM (inactive) | 90.2 µM (inactive) | 66.7 µM (inactive) |
| CN(C)c1ccc(/C=C/c2cc[n+](C)c3ccccc23)cc1 | 0.418 µM (active) | 3.45 µM (inactive) | 6.43 µM (inactive) | 1.73 µM (inactive) | 3.4 µM (inactive) | 2.27 µM (inactive) | 1.36 µM (inactive) | 1.58 µM (inactive) | 7.1 µM (inactive) | 3.71 µM (inactive) | 2.44 µM (inactive) | 0.437 µM (active) | 5.56 µM (inactive) | 2.74 µM (inactive) | 5.6 µM (inactive) | 5.32 µM (inactive) | 2.51 µM (inactive) | 3.44 µM (inactive) | 3.44 µM (inactive) | 1.53 µM (inactive) |
| Cc1ccc2c(=O)cc(-c3ccc(-c4ccccc4)s3)[nH]c2n1 | 11.9 µM (inactive) | 72.4 µM (inactive) | > 100 µM (inactive) | 6.03 µM (inactive) | 4.18 µM (inactive) | > 100 µM (inactive) | > 100 µM (inactive) | 25.6 µM (inactive) | > 59.8 µM (inactive) | > 48.3 µM (inactive) | > 31.5 µM (inactive) | > 33.6 µM (inactive) | 13 µM (inactive) | > 46.7 µM (inactive) | > 100 µM (inactive) | > 100 µM (inactive) | > 24.5 µM (inactive) | 58.6 µM (inactive) | > 100 µM (inactive) | > 58.3 µM (inactive) |
| Cc1cc(-c2nc3ccc(F)cc3s2)ccc1NC(=O)C(N)CCCCN (stereo not given) | 3.45 µM (inactive) | 4.83 µM (inactive) | 7.64 µM (inactive) | 9.53 µM (inactive) | 2.34 µM (inactive) | 10.1 µM (inactive) | 4.51 µM (inactive) | 3.71 µM (inactive) | 10.4 µM (inactive) | 0.0731 µM (active) | 2.9 µM (inactive) | 14.4 µM (inactive) | 3.27 µM (inactive) | 5.12 µM (inactive) | 12.3 µM (inactive) | 18.4 µM (inactive) | 2.02 µM (inactive) | 7.76 µM (inactive) | 3.29 µM (inactive) | 5.97 µM (inactive) |
| CCOC(=O)C(CCSC)(CCSC)C(=O)OCC | > 100 µM (inactive) | > 100 µM (inactive) | > 100 µM (inactive) | > 100 µM (inactive) | > 100 µM (inactive) | > 100 µM (inactive) | > 100 µM (inactive) | > 100 µM (inactive) | > 100 µM (inactive) | > 100 µM (inactive) | > 100 µM (inactive) | > 100 µM (inactive) | > 100 µM (inactive) | > 100 µM (inactive) | > 100 µM (inactive) | > 100 µM (inactive) | > 100 µM (inactive) | > 100 µM (inactive) | > 100 µM (inactive) | > 100 µM (inactive) |
| CCCCCCCCCCCCCCCCC(=O)NCC(=O)NCC(=O)NC(Cc1ccccc1)C(=O)Oc1ccc([N+](=O)[O-])cc1 (stereo not given) | 23.3 µM (inactive) | 45.2 µM (inactive) | 27.5 µM (inactive) | 31.5 µM (inactive) | 16.4 µM (inactive) | 48.4 µM (inactive) | 20.2 µM (inactive) | 18.6 µM (inactive) | 23.4 µM (inactive) | 71 µM (inactive) | 19.4 µM (inactive) | 16.7 µM (inactive) | 27.6 µM (inactive) | > 100 µM (inactive) | > 100 µM (inactive) | 15.8 µM (inactive) | 22.7 µM (inactive) | 19.7 µM (inactive) | 21.4 µM (inactive) | 19.2 µM (inactive) |
| Cc1ccc2c(O)c3c(cc2c1)C(=O)c1c2c(cc(O)c1C3=O)C1(C)OC(O2)C(O)C(N(C)C)C1O (stereo not given) | 0.167 µM (active) | 1.04 µM (active) | 1.97 µM (inactive) | 1.05 µM (active) | 0.124 µM (active) | 1.85 µM (inactive) | 0.91 µM (active) | 0.296 µM (active) | 1.21 µM (inactive) | 1.69 µM (inactive) | 1.02 µM (active) | 1.49 µM (inactive) | 1.11 µM (active) | 1.02 µM (active) | 0.767 µM (active) | 1.32 µM (inactive) | 0.59 µM (active) | 1.37 µM (inactive) | 1.56 µM (inactive) | 1.19 µM (inactive) |
| COC(=O)[C@@]12CSC[C@]1(C(=O)OC)N[C@@H](c1ccccc1O)C2 | > 100 µM (inactive) | > 100 µM (inactive) | > 100 µM (inactive) | > 100 µM (inactive) | > 100 µM (inactive) | > 100 µM (inactive) | > 100 µM (inactive) | > 100 µM (inactive) | > 100 µM (inactive) | > 100 µM (inactive) | > 100 µM (inactive) | > 100 µM (inactive) | > 100 µM (inactive) | > 100 µM (inactive) | > 100 µM (inactive) | > 100 µM (inactive) | > 100 µM (inactive) | > 100 µM (inactive) | > 100 µM (inactive) | > 100 µM (inactive) |
| O=C(CCCn1ccnc1[N+](=O)[O-])NCCn1cncc1[N+](=O)[O-] | > 100 µM (inactive) | > 100 µM (inactive) | > 100 µM (inactive) | > 100 µM (inactive) | > 100 µM (inactive) | > 100 µM (inactive) | > 100 µM (inactive) | > 100 µM (inactive) | > 100 µM (inactive) | > 100 µM (inactive) | > 100 µM (inactive) | > 100 µM (inactive) | > 100 µM (inactive) | > 100 µM (inactive) | > 100 µM (inactive) | > 100 µM (inactive) | > 100 µM (inactive) | > 100 µM (inactive) | > 100 µM (inactive) | > 100 µM (inactive) |
| CN(C)CCN1Nc2c3ccccc3nc3c(C(=O)NCCCN(C)CCCNC(=O)c4ccc5c6c(c7ccccc7nc46)NN5CCN(C)C)ccc1c23 | < 0.01 µM (active) | < 0.01 µM (active) | 0.0322 µM (active) | < 0.01 µM (active) | < 0.01 µM (active) | 0.0109 µM (active) | 0.0143 µM (active) | < 0.01 µM (active) | 0.15 µM (active) | 0.132 µM (active) | < 0.01 µM (active) | 0.178 µM (active) | 0.257 µM (active) | 0.0352 µM (active) | 0.0217 µM (active) | 0.0498 µM (active) | < 0.01 µM (active) | < 0.01 µM (active) | 0.0353 µM (active) | < 0.01 µM (active) |
